Measurements as given in PMC7036753, “Lipidated Analogs of the LL-37-Derived Peptide Fragment KR12—Structural Analysis, Surface-Active Properties and Antimicrobial Activity” (International Journal of Molecular Sciences, 2020).
In brackets after ≈: the same amount, converted by molar mass. Ends that are not written are not given here. Peptide text beside a SMILES is read from it. * marks the point of attachment. Myristoyl = CCCCCCCCCCCCCC(=O)*; Octanoyl = CCCCCCCC(=O)*; X1 = O=C(/C=C/c1ccccc1)*

What was measured:
[1] = tested on: S. aureus ATCC 12598 biofilm; assay type: cell-based, Staphylococcus aureus; conditions: ATCC 12598, 24 h
Experimental: (§1) The MBECs values were determined according to the method reported previously. Briefly, 24-h cultures of S. aureus, namely: S. aureus ATCC 25923, S. aureus ATCC 6538, S. aureus ATCC 33591 (MRSA), S. aureus ATCC 9144 and S. aureus ATCC 12598 were diluted to a concentration of 0.5 × 10^7 CFU/mL and added to the test wells of polystyrene microdilution flat-bottom plates. After 24-h of incubation at 37 °C, the wells were rinsed three times with PBS to remove non-adherent cells. Subsequently, 100 μL of the test compounds over a concentration range 0.5–256 µg/mL were added to each well and incubated again for 24 h at 37 °C. After this period, 20 μL of the resazurin (7-hydroxy-3H-phenoxazin-3-one-10-oxide, 4 mg/mL) solution was added to each well. After 1 h of incubation, the MBECs were read out. The determined values were recorded as the lowest concentration at which the reduction of resazurin (from blue to pink) was lower or equal to 10 ± 0.5% as compared to the positive (100%) and negative (0%) controls. All experiments were performed in triplicate.

[2] = tested on: S. aureus ATCC 6538 biofilm; assay type: cell-based, Staphylococcus aureus; conditions: ATCC 6538, 24 h
Experimental: as §1

[3] = tested on: S. aureus ATCC 25923 biofilm; assay type: cell-based, Staphylococcus aureus; conditions: ATCC 25923, 24 h
Experimental: as §1

[4] = tested on: S. aureus ATCC 33591 (MRSA) biofilm; assay type: cell-based, Staphylococcus aureus; conditions: ATCC 33591, 24 h
Experimental: as §1

[5] = tested on: S. aureus ATCC 9144 biofilm; assay type: cell-based, Staphylococcus aureus; conditions: ATCC 9144, 24 h
Experimental: as §1

[6] = tested on: ESKAPE strains; assay type: cell-based; conditions: 24 h
Experimental: Examination of antimicrobial activity of the test compounds was conducted on reference strains of bacteria assigned to ESKAPE group of pathogens: Enterococcus faecium ATCC 700221, Klebsiella pneumoniae ATCC 700603, Acinetobacter baumannii ATCC BAA-1605, Pseudomonas aeruginosa ATCC 9027, Klebsiella aerogenes ATCC 13048 (formerly Enterobacter aerogenes) and reference strains of Staphylococcus aureus, namely: S. aureus ATCC 25923, S. aureus ATCC 6538, S. aureus ATCC 33591 (MRSA), S. aureus ATCC 9144 and S. aureus ATCC 12598. All the strains were stored at −80 °C in Roti®-Store cryo vials (Carl Roth GmbH, Karlsruhe, Germany) and before the tests were transferred into fresh Mueller-Hinton Medium (BioMaxima, Lublin, Poland) and incubated for 24 h at 37 °C. Subsequently, each bacterial inoculum was seeded on Mueller-Hinton Agar plates (BioMaxima) and incubated again for 24 h. The cultures prepared in this way were used in further antimicrobial assays and prepared as described above. The MIC values were determined by the broth microdilution method according to Clinical and Laboratory Standards Institute Protocol. […] The experiments were conducted on 96-well microtiter plates, with a final volume of 100 µL. Cell densities were adjusted spectrophotometrically (Multiskan™ GO Microplate Spectrophotometer, Thermo Scientific) at 600 nm. […]

[7] = tested on: human keratinocytes (HaCaT); assay type: cell-based; conditions: 24 h
Experimental: The cytotoxicity of test compounds (IC50) was evaluated for human keratinocytes (HaCaT, ATCC) using classic MTT assay on 96-well plates. In this assay, a colorimetric determination of the cell metabolic activity was carried out. Specifically, the color intensity reflects the number of live cells that can be measured spectrophotometrically. […] A day after plating 500 cells per well, a series of concentrations (0.5–500 μg/mL) of the test compounds were added. Dimethyl sulfoxide (DMSO) was used as a control in cells at a final concentration of 1.0% (v/v), which was related to the maximal concentration of the solvent compounds used in the experiment. After 24 h of incubation with test compounds, a medium containing 1 mg/mL of MTT was added up to a final concentration of 0.5 mg/mL and subsequently incubated at 37 °C for 4 h. Then, the medium was aspirated and the formazan product was solubilized with DMSO. The background absorbance at 630 nm was subtracted from that at 570 nm for each well (Epoch, BioTek Instruments, Winooski, VT, USA). Six replicates were conducted for each concentration. All experiments were repeated at least twice and the resulting IC50 values were calculated with a GraFit 7 software (v. 7.0, Erithacus, Berkley, CA, USA).

[8] = tested on: A. baumannii ATCC BAA-1605; assay type: cell-based, Acinetobacter baumannii; conditions: ATCC BAA-1605, 18 h
Experimental: (§2) Examination of antimicrobial activity of the test compounds was conducted on reference strains of bacteria assigned to ESKAPE group of pathogens: Enterococcus faecium ATCC 700221, Klebsiella pneumoniae ATCC 700603, Acinetobacter baumannii ATCC BAA-1605, Pseudomonas aeruginosa ATCC 9027, Klebsiella aerogenes ATCC 13048 (formerly Enterobacter aerogenes) and reference strains of Staphylococcus aureus, namely: S. aureus ATCC 25923, S. aureus ATCC 6538, S. aureus ATCC 33591 (MRSA), S. aureus ATCC 9144 and S. aureus ATCC 12598. All the strains were stored at −80 °C in Roti®-Store cryo vials (Carl Roth GmbH, Karlsruhe, Germany) and before the tests were transferred into fresh Mueller-Hinton Medium (BioMaxima, Lublin, Poland) and incubated for 24 h at 37 °C. Subsequently, each bacterial inoculum was seeded on Mueller-Hinton Agar plates (BioMaxima) and incubated again for 24 h. The cultures prepared in this way were used in further antimicrobial assays and prepared as described above. The MIC values were determined by the broth microdilution method according to Clinical and Laboratory Standards Institute Protocol. For this purpose, initial inoculums of bacteria (0.5 × 10^5 colony forming unit (CFU)/mL) in Mueller–Hinton Broth were exposed to the ranging concentrations of compounds (0.5–256 µg/mL) and incubated for 18 h at 37 °C. The experiments were conducted on 96-well microtiter plates, with a final volume of 100 µL. Cell densities were adjusted spectrophotometrically (Multiskan™ GO Microplate Spectrophotometer, Thermo Scientific) at 600 nm. The MICs were taken as the lowest drug concentration at which a visible growth of microorganisms was inhibited. All experiments were conducted in triplicate and included positive (growth) and negative (sterility) controls.

[9] = tested on: E. faecium ATCC 700221; assay type: cell-based, Enterococcus faecium; conditions: ATCC 700221, 18 h
Experimental: as §2

[10] = tested on: biofilm of S. aureus strains; experiment: MBEC over reference strains of S. aureus; assay type: cell-based, Staphylococcus aureus
Experimental: as §1

[11] = tested on: reference strains of S. aureus; assay type: cell-based, Staphylococcus aureus; conditions: reference strains of, 24 h
Experimental: Examination of antimicrobial activity of the test compounds was conducted on reference strains of bacteria assigned to ESKAPE group of pathogens: Enterococcus faecium ATCC 700221, Klebsiella pneumoniae ATCC 700603, Acinetobacter baumannii ATCC BAA-1605, Pseudomonas aeruginosa ATCC 9027, Klebsiella aerogenes ATCC 13048 (formerly Enterobacter aerogenes) and reference strains of Staphylococcus aureus, namely: S. aureus ATCC 25923, S. aureus ATCC 6538, S. aureus ATCC 33591 (MRSA), S. aureus ATCC 9144 and S. aureus ATCC 12598. All the strains were stored at −80 °C in Roti®-Store cryo vials (Carl Roth GmbH, Karlsruhe, Germany) and before the tests were transferred into fresh Mueller-Hinton Medium (BioMaxima, Lublin, Poland) and incubated for 24 h at 37 °C. Subsequently, each bacterial inoculum was seeded on Mueller-Hinton Agar plates (BioMaxima) and incubated again for 24 h. The cultures prepared in this way were used in further antimicrobial assays and prepared as described above. The MIC values were determined by the broth microdilution method according to Clinical and Laboratory Standards Institute Protocol. […] The experiments were conducted on 96-well microtiter plates, with a final volume of 100 µL. Cell densities were adjusted spectrophotometrically (Multiskan™ GO Microplate Spectrophotometer, Thermo Scientific) at 600 nm. The MICs were taken as the lowest drug concentration at which a visible growth of microorganisms was inhibited. All experiments were conducted in triplicate and included positive (growth) and negative (sterility) controls.

[12] = tested on: K. aerogenes ATCC 13048; assay type: cell-based, Klebsiella aerogenes; conditions: ATCC 13048, 18 h
Experimental: as §2

[13] = tested on: S. aureus ATCC 9144; assay type: cell-based, Staphylococcus aureus; conditions: ATCC 9144, 18 h
Experimental: as §2

[14] = tested on: S. aureus ATCC 6538; assay type: cell-based, Staphylococcus aureus; conditions: ATCC 6538, 18 h
Experimental: as §2

[15] = tested on: S. aureus ATCC 12598; assay type: cell-based, Staphylococcus aureus; conditions: ATCC 12598, 18 h
Experimental: as §2

[16] = tested on: S. aureus ATCC 33591 (MRSA); assay type: cell-based, Staphylococcus aureus; conditions: ATCC 33591, 18 h
Experimental: as §2

[17] = tested on: S. aureus ATCC 25923; assay type: cell-based, Staphylococcus aureus; conditions: ATCC 25923, 18 h
Experimental: as §2

[18] = tested on: P. aeruginosa ATCC 9027; assay type: cell-based, Pseudomonas aeruginosa; conditions: ATCC 9027, 18 h
Experimental: as §2

[19] = tested on: K. pneumoniae ATCC 700603; assay type: cell-based, Klebsiella pneumoniae; conditions: ATCC 700603, 18 h
Experimental: as §2

Compound | MBEC [1] [µg/mL] | MBEC [2] [µg/mL] | MBEC [3] [µg/mL] | MBEC [4] [µg/mL] | MBEC [5] [µg/mL] | MIC range [6] [µg/mL] | IC50 [7] [µg/mL] | MIC [8] [µg/mL] | MIC [9] [µg/mL] | MBEC range [10] [µg/mL] | GM (geometric mean of the MIC values against S. aureus) [11] [µg/mL] | MIC [12] [µg/mL] | MIC [13] [µg/mL] | MIC [14] [µg/mL] | MIC [15] [µg/mL] | MIC [16] [µg/mL] | MIC [17] [µg/mL] | MIC [18] [µg/mL] | MIC [19] [µg/mL]
CCCCCCCC(=O)N[C@@H](CCCCN)C(=O)N[C@@H](CCCNC(=N)N)C(=O)N[C@H](C(=O)N[C@H](C(=O)N[C@@H](CCC(N)=O)C(=O)N[C@@H](CCCNC(=N)N)C(=O)N[C@H](C(=O)N[C@@H](CCCCN)C(=O)N[C@@H](CC(=O)O)C(=O)N[C@@H](Cc1ccccc1)C(=O)N[C@@H](CC(C)C)C(=O)N[C@@H](CCCNC(=N)N)C(N)=O)[C@@H](C)CC)C(C)C)[C@@H](C)CC [IV, C8-KR12-NH2] (Octanoyl-KRIVQRIKDFLR-NH2) | 4 | 16 | 8 | 4 | 4 | 1 to 4 | 3.23 (≈ 1.9 µM) | 2 (≈ 1.18 µM) | 1 (≈ 0.589 µM) | 4 to 16 | 2.30 | 2 (≈ 1.18 µM) | 2 (≈ 1.18 µM) | 2 (≈ 1.18 µM) | 4 (≈ 2.36 µM) | 2 (≈ 1.18 µM) | 2 (≈ 1.18 µM) | 2 (≈ 1.18 µM) | 2 (≈ 1.18 µM)
CC[C@H](C)[C@H](NC(=O)[C@H](CCCNC(=N)N)NC(=O)[C@H](CCC(N)=O)NC(=O)[C@@H](NC(=O)[C@@H](NC(=O)[C@H](CCCNC(=N)N)NC(=O)[C@H](CCCCN)NC(=O)/C=C/c1ccccc1)[C@@H](C)CC)C(C)C)C(=O)N[C@@H](CCCCN)C(=O)N[C@@H](CC(=O)O)C(=O)N[C@@H](Cc1ccccc1)C(=O)N[C@@H](CC(C)C)C(=O)N[C@@H](CCCNC(=N)N)C(N)=O [IX, trans-Cinnamic acid-KR12-NH2] (X1-KRIVQRIKDFLR-NH2) | 4 | 8 | 32 | 16 | 8 | 1 to 8 | 10.00 (≈ 5.88 µM) | 4 (≈ 2.35 µM) | 1 (≈ 0.588 µM) | – | 4.00 | 4 (≈ 2.35 µM) | 4 (≈ 2.35 µM) | 2 (≈ 1.18 µM) | 4 (≈ 2.35 µM) | 4 (≈ 2.35 µM) | 8 (≈ 4.7 µM) | 4 (≈ 2.35 µM) | 4 (≈ 2.35 µM)
CCCCCCCCCCCCCC(=O)N[C@@H](CCCCN)C(=O)N[C@@H](CCCNC(=N)N)C(=O)N[C@H](C(=O)N[C@H](C(=O)N[C@@H](CCC(N)=O)C(=O)N[C@@H](CCCNC(=N)N)C(=O)N[C@H](C(=O)N[C@@H](CCCCN)C(=O)N[C@@H](CC(=O)O)C(=O)N[C@@H](Cc1ccccc1)C(=O)N[C@@H](CC(C)C)C(=O)N[C@@H](CCCNC(=N)N)C(N)=O)[C@@H](C)CC)C(C)C)[C@@H](C)CC [VII, C14-KR12-NH2] (Myristoyl-KRIVQRIKDFLR-NH2) | 64 | 256 | 256 | 256 | 128 | – | 1.29 (≈ 0.724 µM) | 32 (≈ 18 µM) | 8 (≈ 4.49 µM) | – | 64.00 | 128 (≈ 71.9 µM) | 64 (≈ 35.9 µM) | 64 (≈ 35.9 µM) | 128 (≈ 71.9 µM) | 16 (≈ 8.98 µM) | 128 (≈ 71.9 µM) | 128 (≈ 71.9 µM) | 64 (≈ 35.9 µM)
Ac-KRIVQRIKDFLR-NH2 [I, Ac-KR12-NH2 (C2-KR12-NH2)] | >256 | >256 | >256 | >256 | >256 | – | 84.20 | >256 | 16 | – | >256.00 | >256 | >256 | 256 | >256 | >256 | >256 | 64 | >256
KRIVQRIKDFLR-NH2 [X, KRIVQRIKDFLR-NH2] | >256 | >256 | >256 | >256 | >256 | – | 74.60 | 256 | 8 | – | >256.00 | >256 | >256 | 256 | >256 | >256 | >256 | 16 | >256
